According to publication PMC12454493, “Insight on novel sulfamoylphenyl pyrazole derivatives as anticancer carbonic anhydrase inhibitors” (Molecular Diversity, 2024):
“And” between values parts separate entries of the source, which are not always exact repeats. Identical values can stand only once.

Key:
[1] = system: HL-60(TB); test: NCI-60 one-dose SRB screen (Leukemia); type: cell-based; conditions: Homo sapiens, single dose 10 µM, 48 h, read-out: Growth inhibition percent (GI %)
[2] = system: MOLT-4; test: NCI-60 one-dose SRB screen (Leukemia); type: cell-based; conditions: Homo sapiens, single dose 10 µM, 48 h, read-out: Growth inhibition percent (GI %)
[3] = system: RPMI-8226; test: NCI-60 one-dose SRB screen (Leukemia); type: cell-based; conditions: Homo sapiens, single dose 10 µM, 48 h, read-out: Growth inhibition percent (GI %)
[4] = system: K-562; test: NCI-60 one-dose SRB screen (Leukemia); type: cell-based; conditions: Homo sapiens, K562, single dose 10 µM, 48 h, read-out: Growth inhibition percent (GI %)
[5] = system: CCRF-CEM; test: NCI-60 one-dose SRB screen (Leukemia); type: cell-based; conditions: Homo sapiens, single dose 10 µM, 48 h, read-out: Growth inhibition percent (GI %)
[6] = system: SR; test: NCI-60 one-dose SRB screen (Leukemia); type: cell-based; conditions: Homo sapiens, single dose 10 µM, 48 h, read-out: Growth inhibition percent (GI %)
[7] = system: OVCAR-4; test: NCI-60 one-dose SRB screen (Ovarian cancer); type: cell-based; conditions: Homo sapiens, single dose 10 µM, 48 h, read-out: Growth inhibition percent (GI %)
[8] = system: IGROV1; test: NCI-60 one-dose SRB screen (Ovarian cancer); type: cell-based; conditions: Homo sapiens, IGROV-1, single dose 10 µM, 48 h, read-out: Growth inhibition percent (GI %)
[9] = system: NCI/ADR-RES; test: NCI-60 one-dose SRB screen (Ovarian cancer); type: cell-based; conditions: Homo sapiens, single dose 10 µM, 48 h, read-out: Growth inhibition percent (GI %)
[10] = system: SK-OV-3; test: NCI-60 one-dose SRB screen (Ovarian cancer); type: cell-based; conditions: Homo sapiens, single dose 10 µM, 48 h, read-out: Growth inhibition percent (GI %)
[11] = system: OVCAR-5; test: NCI-60 one-dose SRB screen (Ovarian cancer); type: cell-based; conditions: Homo sapiens, single dose 10 µM, 48 h, read-out: Growth inhibition percent (GI %)
[12] = system: OVCAR-8; test: NCI-60 one-dose SRB screen (Ovarian cancer); type: cell-based; conditions: Homo sapiens, single dose 10 µM, 48 h, read-out: Growth inhibition percent (GI %)
[13] = system: OVCAR-3; test: NCI-60 one-dose SRB screen (Ovarian cancer); type: cell-based; conditions: Homo sapiens, single dose 10 µM, 48 h, read-out: Growth inhibition percent (GI %)
[14] = system: UACC-62; test: NCI-60 one-dose SRB screen (Melanoma); type: cell-based; conditions: Homo sapiens, single dose 10 µM, 48 h, read-out: Growth inhibition percent (GI %)
[15] = system: LOX IMVI; test: NCI-60 one-dose SRB screen (Melanoma); type: cell-based; conditions: Homo sapiens, single dose 10 µM, 48 h, read-out: Growth inhibition percent (GI %)
[16] = system: MDA-MB-435; test: NCI-60 one-dose SRB screen (Melanoma); type: cell-based; conditions: Homo sapiens, single dose 10 µM, 48 h, read-out: Growth inhibition percent (GI %)
[17] = system: SK-MEL-2; test: NCI-60 one-dose SRB screen (Melanoma); type: cell-based; conditions: Homo sapiens, single dose 10 µM, 48 h, read-out: Growth inhibition percent (GI %)
[18] = system: MALME-3M; test: NCI-60 one-dose SRB screen (Melanoma); type: cell-based; conditions: Homo sapiens, single dose 10 µM, 48 h, read-out: Growth inhibition percent (GI %)
[19] = system: SK-MEL-5; test: NCI-60 one-dose SRB screen (Melanoma); type: cell-based; conditions: Homo sapiens, single dose 10 µM, 48 h, read-out: Growth inhibition percent (GI %)
[20] = system: UACC-257; test: NCI-60 one-dose SRB screen (Melanoma); type: cell-based; conditions: Homo sapiens, single dose 10 µM, 48 h, read-out: Growth inhibition percent (GI %)
[21] = system: M14; test: NCI-60 one-dose SRB screen (Melanoma); type: cell-based; conditions: Homo sapiens, single dose 10 µM, 48 h, read-out: Growth inhibition percent (GI %)
[22] = system: SK-MEL-28; test: NCI-60 one-dose SRB screen (Melanoma); type: cell-based; conditions: Homo sapiens, single dose 10 µM, 48 h, read-out: Growth inhibition percent (GI %)
[23] = system: HCC-2998; test: NCI-60 one-dose SRB screen (Colon Cancer); type: cell-based; conditions: Homo sapiens, single dose 10 µM, 48 h, read-out: Growth inhibition percent (GI %)
[24] = system: SW-620; test: NCI-60 one-dose SRB screen (Colon Cancer); type: cell-based; conditions: Homo sapiens, single dose 10 µM, 48 h, read-out: Growth inhibition percent (GI %)
[25] = system: COLO 205; test: NCI-60 one-dose SRB screen (Colon Cancer); type: cell-based; conditions: Homo sapiens, single dose 10 µM, 48 h, read-out: Growth inhibition percent (GI %)
[26] = system: HCT-15; test: NCI-60 one-dose SRB screen (Colon Cancer); type: cell-based; conditions: Homo sapiens, single dose 10 µM, 48 h, read-out: Growth inhibition percent (GI %)
[27] = system: HT29; test: NCI-60 one-dose SRB screen (Colon Cancer); type: cell-based; conditions: Homo sapiens, HT-29, single dose 10 µM, 48 h, read-out: Growth inhibition percent (GI %)
[28] = system: HCT-116; test: NCI-60 one-dose SRB screen (Colon Cancer); type: cell-based; conditions: Homo sapiens, single dose 10 µM, 48 h, read-out: Growth inhibition percent (GI %)
[29] = system: KM12; test: NCI-60 one-dose SRB screen (Colon Cancer); type: cell-based; conditions: Homo sapiens, single dose 10 µM, 48 h, read-out: Growth inhibition percent (GI %)
[30] = system: NCI-H522; test: NCI-60 one-dose SRB screen (Non-Small Cell Lung Cancer); type: cell-based; conditions: Homo sapiens, single dose 10 µM, 48 h, read-out: Growth inhibition percent (GI %)
[31] = system: NCI-H23; test: as above; type: cell-based; conditions: Homo sapiens, single dose 10 µM, 48 h, read-out: Growth inhibition percent (GI %)
[32] = system: NCI-H322M; test: as above; type: cell-based; conditions: Homo sapiens, single dose 10 µM, 48 h, read-out: Growth inhibition percent (GI %)
[33] = system: NCI-H226; test: as above; type: cell-based; conditions: Homo sapiens, single dose 10 µM, 48 h, read-out: Growth inhibition percent (GI %)
[34] = system: NCI-H460; test: as above; type: cell-based; conditions: Homo sapiens, single dose 10 µM, 48 h, read-out: Growth inhibition percent (GI %)
[35] = system: A549/ATCC; test: as above; type: cell-based; conditions: Homo sapiens, single dose 10 µM, 48 h, read-out: Growth inhibition percent (GI %)
[36] = system: HOP-62; test: as above; type: cell-based; conditions: Homo sapiens, single dose 10 µM, 48 h, read-out: Growth inhibition percent (GI %)
[37] = system: EKVX; test: as above; type: cell-based; conditions: Homo sapiens, single dose 10 µM, 48 h, read-out: Growth inhibition percent (GI %)
[38] = molecular target: hCA IX (Homo sapiens, UniProt Q16790); test: CA inhibitory activity, spectrophotometric p-NPA assay; type: biochemical; conditions: p-NPA substrate, pH 7.5, 25 °C, triplicate; read-out: IC50 (µM) ± SD hCA IX
[39] = molecular target: hCA XII (Homo sapiens, UniProt O43570); test: as above; type: biochemical; conditions: p-NPA substrate, pH 7.5, 25 °C, triplicate; read-out: IC50 (µM) ± SD hCA XII
[40] = system: SF-295; test: NCI-60 one-dose SRB screen (CNS Cancer); type: cell-based; conditions: Homo sapiens, single dose 10 µM, 48 h, read-out: Growth inhibition percent (GI %)
[41] = system: SNB-75; test: NCI-60 one-dose SRB screen (CNS Cancer); type: cell-based; conditions: Homo sapiens, single dose 10 µM, 48 h, read-out: Growth inhibition percent (GI %)
[42] = system: SNB-19; test: NCI-60 one-dose SRB screen (CNS Cancer); type: cell-based; conditions: Homo sapiens, single dose 10 µM, 48 h, read-out: Growth inhibition percent (GI %)
[43] = system: U251; test: NCI-60 one-dose SRB screen (CNS Cancer); type: cell-based; conditions: Homo sapiens, U-251, single dose 10 µM, 48 h, read-out: Growth inhibition percent (GI %)
[44] = system: SF-268; test: NCI-60 one-dose SRB screen (CNS Cancer); type: cell-based; conditions: Homo sapiens, single dose 10 µM, 48 h, read-out: Growth inhibition percent (GI %)
[45] = system: SF-539; test: NCI-60 one-dose SRB screen (CNS Cancer); type: cell-based; conditions: Homo sapiens, single dose 10 µM, 48 h, read-out: Growth inhibition percent (GI %)

Chain of hCA XII (O43570 25-354): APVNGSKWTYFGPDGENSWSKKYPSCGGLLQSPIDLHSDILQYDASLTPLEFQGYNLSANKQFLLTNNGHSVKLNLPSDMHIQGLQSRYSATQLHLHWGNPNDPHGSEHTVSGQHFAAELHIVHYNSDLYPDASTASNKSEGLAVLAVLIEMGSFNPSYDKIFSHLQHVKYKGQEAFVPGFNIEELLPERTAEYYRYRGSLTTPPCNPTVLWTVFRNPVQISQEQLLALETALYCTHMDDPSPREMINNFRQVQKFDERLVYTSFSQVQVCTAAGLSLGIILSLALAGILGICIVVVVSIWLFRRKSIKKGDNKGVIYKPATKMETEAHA

NS(=O)(=O)c1ccc(-n2cc(C(=O)OCC(=O)Nc3nnc(S(N)(=O)=O)s3)c(-c3ccccc3)n2)cc1 [Compound 6a, 2-Oxo-2-[(5-sulfamoyl-1,3,4-thiadiazol-2-yl)amino] ethyl 3-phenyl-1-(4-sulfamoylphenyl)-1H-pyrazole-4-carboxylate]
inhibition at 10 µM [1]: < 5%
inhibition at 10 µM [2]: < 5%
inhibition at 10 µM [3]: < 5%
inhibition at 10 µM [4]: < 5%
inhibition at 10 µM [5]: < 5%
inhibition at 10 µM [6]: 17%
inhibition at 10 µM [7]: < 5%
inhibition at 10 µM [8]: < 5%
inhibition at 10 µM [9]: < 5%
inhibition at 10 µM [10]: 54.6%
inhibition at 10 µM [11]: < 5%
inhibition at 10 µM [12]: < 5%
inhibition at 10 µM [13]: < 5%
inhibition at 10 µM [14]: 17.7%
inhibition at 10 µM [15]: 8.67%
inhibition at 10 µM [16]: < 5%
inhibition at 10 µM [17]: < 5%
inhibition at 10 µM [18]: < 5%
inhibition at 10 µM [19]: < 5%
inhibition at 10 µM [20]: < 5%
inhibition at 10 µM [21]: < 5%
inhibition at 10 µM [22]: < 5%
inhibition at 10 µM [23]: < 5%
inhibition at 10 µM [24]: < 5%
inhibition at 10 µM [25]: < 5%
inhibition at 10 µM [26]: < 5%
inhibition at 10 µM [27]: < 5%
inhibition at 10 µM [28]: < 5%
inhibition at 10 µM [29]: < 5%
inhibition at 10 µM [30]: 13.3%
inhibition at 10 µM [31]: < 5%
inhibition at 10 µM [32]: < 5%
inhibition at 10 µM [33]: 16.2%
inhibition at 10 µM [34]: < 5%
inhibition at 10 µM [35]: < 5%
inhibition at 10 µM [36]: < 5%
inhibition at 10 µM [37]: 9.86%
IC50 [38]: 0.591 ± 0.028 µM
IC50 [39]: 0.35 µM and 0.358 µM
melting point: 135 to 137 °C
inhibition at 10 µM [40]: < 5%
inhibition at 10 µM [41]: 5.39%
inhibition at 10 µM [42]: 6.91%
inhibition at 10 µM [43]: < 5%
inhibition at 10 µM [44]: < 5%
inhibition at 10 µM [45]: < 5%

Cc1ccc(-c2nn(-c3ccc(S(N)(=O)=O)cc3)cc2C(=O)OCC(=O)Nc2nnc(S(N)(=O)=O)s2)cc1 [Compound 6b, 2-Oxo-2-[(5-sulfamoyl-1,3,4-thiadiazol-2-yl)amino] ethyl 1-(4-sulfamoylphenyl)-3-(p-tolyl)-1H-pyrazole-4-carboxylate]
inhibition at 10 µM [1]: < 5%
inhibition at 10 µM [2]: 7.13%
inhibition at 10 µM [3]: < 5%
inhibition at 10 µM [4]: 16.7%
inhibition at 10 µM [5]: 6.03%
inhibition at 10 µM [6]: 15.7%
inhibition at 10 µM [7]: 16%
inhibition at 10 µM [8]: < 5%
inhibition at 10 µM [9]: < 5%
inhibition at 10 µM [10]: < 5%
inhibition at 10 µM [11]: < 5%
inhibition at 10 µM [12]: < 5%
inhibition at 10 µM [13]: < 5%
inhibition at 10 µM [14]: 14.4%
inhibition at 10 µM [15]: 12.1%
inhibition at 10 µM [16]: 5.8%
inhibition at 10 µM [17]: < 5%
inhibition at 10 µM [18]: 10.9%
inhibition at 10 µM [19]: 23%
inhibition at 10 µM [20]: < 5%
inhibition at 10 µM [21]: < 5%
inhibition at 10 µM [22]: < 5%
inhibition at 10 µM [23]: < 5%
inhibition at 10 µM [24]: < 5%
inhibition at 10 µM [25]: < 5%
inhibition at 10 µM [26]: < 5%
inhibition at 10 µM [27]: < 5%
inhibition at 10 µM [28]: < 5%
inhibition at 10 µM [29]: < 5%
inhibition at 10 µM [30]: < 5%
inhibition at 10 µM [31]: 9.63%
inhibition at 10 µM [32]: < 5%
inhibition at 10 µM [33]: 13.3%
inhibition at 10 µM [34]: < 5%
inhibition at 10 µM [35]: < 5%
inhibition at 10 µM [36]: < 5%
inhibition at 10 µM [37]: 7.25%
IC50 [38]: 0.339 ± 0.016 µM
IC50 [39]: 1.7 ± 0.064 µM
melting point: 115 to 120 °C
inhibition at 10 µM [40]: < 5%
inhibition at 10 µM [41]: 23.9%
inhibition at 10 µM [42]: 5.72%
inhibition at 10 µM [43]: < 5%
inhibition at 10 µM [44]: 9.87%
inhibition at 10 µM [45]: 7.75%
